Tests used:
[1] = system: VIOAR; test: Greenhouse trial, pre-emergence (PE) soil application, action against weeds; type: in vivo, Viola arvensis; settings: g of AS/ha: (A) 90, (B) 300, (C) mefenpyr 300, about 3 weeks after application
Procedure: (§1) In the standard design of the test, seeds of various broad-leaved weed and weed grass biotypes (origins) were sown in a 8-13 cm diameter pot filled with natural soil of a standard field soil (loamy silt; non-sterile) and covered with a covering soil layer of about 1 cm. The pots were then cultivated in a greenhouse (12-16 h of light, temperature day 20-22° C., night 15-18° C.) until the time of application. The pots were treated on a laboratory track sprayer with spray liquors comprising the compositions according to the invention, mixtures of the prior art or components used individually. Application of the active compounds or active compound combinations formulated as WG, WP, EC or otherwise was carried out at the appropriate growth stages of the plants. The application rate for the spray application was 100-600 l of water/ha. After the treatment, the plants were returned to the greenhouses.
(§2) About 3 weeks after the application, the soil action or/and foliar action was assessed visually according to a scale of 0-100% in comparison to an untreated comparative group: 0%=no noticeable effect compared to the untreated comparative group; 100%=full effect compared to the untreated comparative group. […]

[2] = system: TRZAW; test: Greenhouse trial, selective pre-emergence action (PE application), crop plant; type: in vivo, Triticum aestivum, winter wheat; settings: g of AS/ha: (A) 90, (B) 300, (C) mefenpyr 300
Procedure: as §1, §2

[3] = system: TRZAS; test: as above; type: in vivo, Triticum aestivum, summer wheat
Procedure: as §1
(§3) About 3 weeks after the application, the soil action or/and foliar action was assessed visually according to a scale of 0-100% in comparison to an untreated comparative group: 0%=no noticeable effect compared to the untreated comparative group; 100%=full effect compared to the untreated comparative group.
(§4) (notes: the term “seeds” also includes vegetative propagation forms such as, for example, rhizome pieces; abbreviations used: h light=hours of illumination, g of AS/ha=gram of active substance per hectare, l/ha=liter per hectare, S=sensitive, R=resistant) • 1. Pre-emergence action against weeds: seeds of various broad-leaved weed and weed grass biotypes (origins) were sown in a 8-13 cm diameter pot filled with natural soil of a standard field soil (loamy silt; non-sterile) and covered with a covering soil layer of about 1 cm. The pots were then cultivated in a greenhouse (12-16 h of light, temperature day 20-22° C., night 15-18° C.) until the time of application. The pots were treated at the BBCH stage 00-10 of the seeds/plants on a laboratory track sprayer with spray liquors comprising the compositions according to the invention, mixtures or components used individually, as WG, WP, EC or other formulations. The application rate for the spray application was 100-600 l of water/ha. After the treatment, the plants were returned to the greenhouses and, when required, treated with fertilizer and watered. • 2. Post-emergence action against weeds: seeds of various broad-leaved weed and weed grass biotypes (origins) were sown in a 8-13 cm diameter pot filled with natural soil of a standard field soil (loamy silt; non-sterile) and covered with a covering soil layer of about 1 cm. The pots were then cultivated in a greenhouse (12-16 h of light, temperature day 20-22° C., night 15-18° C.) until the time of application. […]

[4] = system: HORVW; test: as above; type: in vivo, Hordeum vulgare, winter barley; settings: g of AS/ha: (A) 90, (B) 300, (C) mefenpyr 300
Procedure: as §1, §2

[5] = system: VIOAR; test: Greenhouse trial, incorporation of active compound into the soil covering layer, action against weeds; type: in vivo, Viola arvensis; settings: g of AS/ha: (A) 90, (B) 300, (C) mefenpyr 300
Procedure: as §1, §2

[6] = system: TRZAW; test: Greenhouse trial, incorporation of active compound into the soil covering layer, crop plant; type: in vivo, Triticum aestivum, winter wheat; settings: g of AS/ha: (A) 90, (B) 300, (C) mefenpyr 300
Procedure: as §1, §2

[7] = system: TRZAS; test: as above; type: in vivo, Triticum aestivum, summer wheat; settings: g of AS/ha: (A) 90, (B) 300, (C) mefenpyr 300
Procedure: as §1, §2

[8] = system: HORVW; test: as above; type: in vivo, Hordeum vulgare, winter barley; settings: g of AS/ha: (A) 90, (B) 300, (C) mefenpyr 300
Procedure: as §1, §2

[9] = system: ALOMY; test: Greenhouse trial, post-emergence (PO) action against weeds; type: in vivo, Alopecurus myosuroides; settings: PO application; g of AS/ha: (A) 120, (B) 600
Procedure: as §1, §2

[10] = system: POAAN; test: as above; type: in vivo, Poa annua; settings: PO application; g of AS/ha: (A) 120, (B) 600
Procedure: as §1, §2

[11] = system: AVEFA; test: as above; type: in vivo, Avena fatua; settings: PO application; g of AS/ha: (A) 120, (B) 600
Procedure: as §1, §2

[12] = system: HORVS; test: Greenhouse trial, selective post-emergence (PO) action, crop plant; type: in vivo, Hordeum vulgare, summer barley; settings: PO application, g of AS/ha: (A) 120, (B) 600
Procedure: as §1, §2

[13] = system: STEME; test: Greenhouse trial, PE application (comparison with pre-sowing method), weeds; type: in vivo, Stellaria media; settings: g of AS/ha: (A) 90, (B) 300
Procedure: as §1, §2

[14] = system: AVEFA; test: as above; type: in vivo, Avena fatua; settings: g of AS/ha: (A) 90, (B) 300
Procedure: as §1, §2

[15] = system: STEME; test: Greenhouse trial, pre-sowing application 7 days prior to sowing, weeds; type: in vivo, Stellaria media; settings: g of AS/ha: (A) 90, (B) 300
Procedure: as §1, §2

[16] = system: AVEFA; test: as above; type: in vivo, Avena fatua; settings: g of AS/ha: (A) 90, (B) 300
Procedure: as §1, §2

[17] = system: TRZAS; test: Greenhouse trial, pre-sowing application 7 days prior to sowing, crop plant; type: in vivo, Triticum aestivum, summer wheat; settings: g of AS/ha: (A) 90, (B) 300
Procedure: as §1, §2

[18] = system: LOLPE; test: Greenhouse trial, PE application with different soil types; type: in vivo, Lolium perenne; settings: g of AS/ha: (A) 90, (B) 300
Procedure: as §1, §3, §4

[19] = system: STEME; test: Greenhouse trial, PE application on sensitive and resistant biotypes; type: in vivo, Stellaria media; settings: g of AS/ha: (A) 120, (B) 600, iodosulfuron 10; for STEME resistant activity (visual, scale 0-100%): resistant biotype; for STEME sensitive activity (visual, scale 0-100%): sensitive biotype
Procedure: as §1, §3
(§5) (notes: the term “seeds” also includes vegetative propagation forms such as, for example, rhizome pieces; abbreviations used: h light=hours of illumination, g of AS/ha=gram of active substance per hectare, l/ha=liter per hectare, S=sensitive, R=resistant) • 1. Pre-emergence action against weeds: seeds of various broad-leaved weed and weed grass biotypes (origins) were sown in a 8-13 cm diameter pot filled with natural soil of a standard field soil (loamy silt; non-sterile) and covered with a covering soil layer of about 1 cm. The pots were then cultivated in a greenhouse (12-16 h of light, temperature day 20-22° C., night 15-18° C.) until the time of application. The pots were treated at the BBCH stage 00-10 of the seeds/plants on a laboratory track sprayer with spray liquors comprising the compositions according to the invention, mixtures or components used individually, as WG, WP, EC or other formulations. The application rate for the spray application was 100-600 l of water/ha. After the treatment, the plants were returned to the greenhouses and, when required, treated with fertilizer and watered. • 2. Post-emergence action against weeds: seeds of various broad-leaved weed and weed grass biotypes (origins) were sown in a 8-13 cm diameter pot filled with natural soil of a standard field soil (loamy silt; non-sterile) and covered with a covering soil layer of about 1 cm. The pots were then cultivated in a greenhouse (12-16 h of light, temperature day 20-22° C., night 15-18° C.) until the time of application. The pots were treated at various BBCH stages between 11-25 of the seeds/plants, i.e. generally between two to three weeks after the start of the cultivation, on a laboratory track sprayer with spray liquors comprising the compositions according to the invention, mixtures or components used individually, as WG, WP, EC or other formulations. The application rate for the spray application was 100-600 l of water/ha. After the treatment, the plants were returned to the greenhouses and, when required, treated with fertilizer and watered. • 3. Pre-emergence action against weeds with and without incorporation of active compound: seeds of various broad-leaved weed and weed grass biotypes (origins) were sown in a 8-13 cm diameter pot filled with natural soil of a standard field soil (loamy silt; non-sterile). […]

[20] = system: MATCH; test: as above; type: in vivo, Matricaria chamomilla; settings: g of AS/ha: (A) 120, (B) 600, iodosulfuron 10; for MATCH resistant activity (visual, scale 0-100%): resistant biotype; for MATCH sensitive activity (visual, scale 0-100%): sensitive biotype
Procedure: as §1, §3, §5

[21] = g of AS/ha: (A) 90, (B) 300, (C) mefenpyr 300
[22] = g of AS/ha: (A) 90, (B) 300, Table 3

| Structure (SMILES) | VIOAR activity (visual, scale 0-100%) [1] [%] | TRZAW activity (visual, scale 0-100%) [2] [%] | TRZAS activity (visual, scale 0-100%) [3, 21] [%] | TRZAS activity (visual, scale 0-100%) [3, 22] [%] | HORVW activity (visual, scale 0-100%) [4] [%] | VIOAR activity (visual, scale 0-100%) [5] [%] | TRZAW activity (visual, scale 0-100%) [6] [%] | TRZAS activity (visual, scale 0-100%) [7] [%] | HORVW activity (visual, scale 0-100%) [8] [%] | ALOMY activity (visual, scale 0-100%) [9] [%] | POAAN activity (visual, scale 0-100%) [10] [%] | AVEFA activity (visual, scale 0-100%) [11] [%] | HORVS activity (visual, scale 0-100%) [12] [%] | STEME activity (visual, scale 0-100%) [13] [%] | AVEFA activity (visual, scale 0-100%) [14] [%] | STEME activity (visual, scale 0-100%) [15] [%] | STEME resistant activity (visual, scale 0-100%) [19] [%] | STEME sensitive activity (visual, scale 0-100%) [19] [%] | MATCH resistant activity (visual, scale 0-100%) [20] [%] | MATCH sensitive activity (visual, scale 0-100%) [20] [%] | other results |
| --- | --- | --- | --- | --- | --- | --- | --- | --- | --- | --- | --- | --- | --- | --- | --- | --- | --- | --- | --- | --- | --- |
| CC(C)N(C(=O)COc1nnc(C(F)(F)F)s1)c1ccc(F)cc1 [(A) flufenacet, N-(4-fluorophenyl)-N-(1-methylethyl)-2-[[5-(trifluoromethyl)-1,3,4-thiadiazol-2-yl]oxy]acetamide] | 0 | 30 | 20 | 20 | 20 | 0 | 60 | 50 | 60 | 65 | 60 | 70 | 40 | 0 | 80 | 35 | 0 | 0 | 50 | 50 | AVEFA activity (visual, scale 0-100%) [16]: 70%; TRZAS activity (visual, scale 0-100%) [17]: 50%; LOLPE IU soil activity (visual, scale 0-100%) [18]: 95%; LOLPE IU/EC73 soil activity (visual, scale 0-100%) [18]: 74% |
| CCCN(CCC)c1c([N+](=O)[O-])cc(C(F)(F)F)cc1[N+](=O)[O-] [(B) trifluralin, 2,6-dinitro-N,N-dipropyl-4-(trifluoromethyl)benzenamine] | 0 | 20 | 0 | 0 | 0 | 10 | 100 | 90 | 60 | 30 | 40 | 20 | 20 | 10 | 70 | 30 | 20 | 20 | 20 | 20 | AVEFA activity (visual, scale 0-100%) [16]: 60%; TRZAS activity (visual, scale 0-100%) [17]: 20%; LOLPE IU soil activity (visual, scale 0-100%) [18]: 55%; LOLPE IU/EC73 soil activity (visual, scale 0-100%) [18]: 0% |
| COc1nc(C)nc(NC(=O)NS(=O)(=O)c2cc(I)ccc2C(=O)O)n1 [(C) iodosulfuron] | – | – | – | – | – | – | – | – | – | – | – | – | – | – | – | – | 40 | 90 | 60 | 100 | – |
